In patent US10723699B2 (Hyundai Pharm Co., Ltd., priority 2015, dated 2020):

How the values were obtained:
CYP2D6 = target: T1, CYP2D6 (Homo sapiens, UniProt P10635); assay: CYP inhibition assay (Invitrogen P2862 kit); assay type: in vitro ADME; details: 10 µM
T1 construct: purchased Invitrogen P2862
From the text: (§1) CYP enzymes play a major role in the metabolism of drugs. Depending on the inhibition activity of the CYP enzymes, the dose of the drugs and toxicity due to the co-administration of other drugs can be predicted. Therefore, we have measured the inhibitory activity for CYP3A4, CYP2C9, CYP1A2, CYP2D6 and CYP2C19 enzymes present in the body using the compounds of the present invention. Invitrogen P2862 kit was used for CYP2D6 inhibition assay, and BD GENTEST (459100, 459300, 459400, 459500) kits were used for CYP1A2, CYP2C9, CYP2C19 and CYP3A4 inhibition assay. In case of Invitrogen kit, the test materials were diluted in distilled water into 2.5× of the final test concentration.
P450 BACULOSOMES® reagent and regeneration device (100×) provided by the Invitrogen kit were diluted in the Vivid® reaction buffer (2×) into the appropriate concentration for the type of CYP450. After mixing 80 μl of the 2.5× test material and 100 μl of the mixture of the diluted P450 BACULOSOMES® reagent in U-bottom 96-well plate, the resulting mixture was pre-incubated for 20 minutes. Vivid® CYP450 substrate and NADP+ (100×) were diluted in the Vivid® CYP450 reaction buffer (2×) into the appropriate concentration for the types of CYP450 and the substrates. After completion of the pre-incubation, 20/l of the substrate-NADP (nicotinamide adenine dinucleotide phosphate) mixture was added, and then incubated for 1 hour. After completion of the reaction, the reactants were transferred to the white plates, and fluorescence values were measured using a micro-plate reader (Excitation and absorption wavelengths of CYP2D6 were 400 nm and 502 nm, respectively).
(§2) The measured values were converted into the inhibition percent of the test materials as compared to the value of the untreated control, and the results were summarized in Table 5.

CYP2C19 = target: T2, CYP2C19 (Homo sapiens, UniProt P33261); assay: CYP inhibition assay (BD GENTEST kit); assay type: in vitro ADME; details: 10 μM
T2 construct: purchased BD GENTEST 459400
From the text: as §1
In case of BD GENTEST kit, the test materials were diluted in acetonitrile into 50× of the final test concentration. NADPH-cofactor mixture containing cofactor, G6PDH and control protein was prepared in distilled water as per manufacturer's instruction. 4 μl of 50× test materials and 96 μl of NADPH-cofactor mixture were mixed in U-bottom 96-well plate, and the resulting mixture were pre-incubated at 37° C. for 10 minutes. Predetermined concentrations of enzyme/substrate mixture were prepared in distilled water using buffer (0.5M potassium phosphate, pH 7.4) and each of CYP450 enzyme/substrate mixture provided in the kit for the types of CYP450. To the pre-incubated plate, 100 μl of enzyme/substrate mixture was added, and then incubated at 37° C. for 15 minutes (CYP1A2), 30 minutes (CYP3A4 and CYP2C19) or 1.5 hours (CYP2C9). After completion of the reaction, the reactants were transferred to the white plates, and fluorescent values were measured using a micro-plate reader (Excitation and absorption wavelengths of CYP1A2 and CYP2C19 were 410 nm and 460 nm, respectively; and excitation and absorption wavelengths of CYP2C9 and CYP3A4 were 409 nm and 530 nm, respectively).
as §2

[1] = target: T3, G protein-coupled receptor 119 (GPR-119) (Mesocricetus auratus, UniProt A0A1U8CD06); assay: cAMP activity in HIT-T15 cells (cAMP dynamic kit, FRET); assay type: cell-based, hamster; details: 1 hour at 37° C., six concentrations 0.0032 to 10 μM, read-out: EC50
T3 construct: hamster-derived β-cells containing G protein-coupled receptor 119 (GPR-119), HIT-T15 cells; host or cells: HIT-T15 (hamster pancreatic β-cells)
T3 sequence (A0A1U8CD06 1-334): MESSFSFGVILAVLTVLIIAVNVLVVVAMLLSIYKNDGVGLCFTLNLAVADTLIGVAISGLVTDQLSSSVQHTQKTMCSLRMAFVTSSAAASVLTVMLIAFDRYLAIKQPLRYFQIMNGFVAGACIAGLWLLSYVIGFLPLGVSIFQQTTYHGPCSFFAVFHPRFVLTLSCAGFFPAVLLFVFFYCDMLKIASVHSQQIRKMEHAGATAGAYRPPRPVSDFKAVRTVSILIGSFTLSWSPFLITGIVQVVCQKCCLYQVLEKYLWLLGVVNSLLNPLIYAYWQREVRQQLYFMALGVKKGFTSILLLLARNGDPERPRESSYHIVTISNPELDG
How it was run: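 Hamster HIT-T15 cells (60,000/well) were treated next day with compound at six concentrations, 0.0032–10 μM, for 1 h at 37° C. Cells were then lysed and cAMP measured by competitive HTRF immunoassay (D2-cAMP, cryptate anti-cAMP). Activity was derived as the change in FRET signal relative to DMSO.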

T1 sequence (P10635 whole entry): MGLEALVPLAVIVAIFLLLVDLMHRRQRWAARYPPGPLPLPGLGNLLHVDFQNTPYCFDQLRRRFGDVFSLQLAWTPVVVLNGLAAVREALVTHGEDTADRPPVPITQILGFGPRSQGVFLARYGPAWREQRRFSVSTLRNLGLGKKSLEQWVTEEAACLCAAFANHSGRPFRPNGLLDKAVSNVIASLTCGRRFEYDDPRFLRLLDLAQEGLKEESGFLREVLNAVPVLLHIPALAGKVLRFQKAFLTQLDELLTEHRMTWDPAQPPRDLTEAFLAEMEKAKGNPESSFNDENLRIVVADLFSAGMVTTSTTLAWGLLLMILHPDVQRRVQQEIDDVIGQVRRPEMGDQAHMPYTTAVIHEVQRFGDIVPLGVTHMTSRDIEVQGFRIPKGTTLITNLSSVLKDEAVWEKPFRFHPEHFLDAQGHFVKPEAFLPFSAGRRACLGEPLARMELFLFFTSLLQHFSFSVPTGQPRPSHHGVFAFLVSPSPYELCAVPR
T2 sequence (P33261 whole entry): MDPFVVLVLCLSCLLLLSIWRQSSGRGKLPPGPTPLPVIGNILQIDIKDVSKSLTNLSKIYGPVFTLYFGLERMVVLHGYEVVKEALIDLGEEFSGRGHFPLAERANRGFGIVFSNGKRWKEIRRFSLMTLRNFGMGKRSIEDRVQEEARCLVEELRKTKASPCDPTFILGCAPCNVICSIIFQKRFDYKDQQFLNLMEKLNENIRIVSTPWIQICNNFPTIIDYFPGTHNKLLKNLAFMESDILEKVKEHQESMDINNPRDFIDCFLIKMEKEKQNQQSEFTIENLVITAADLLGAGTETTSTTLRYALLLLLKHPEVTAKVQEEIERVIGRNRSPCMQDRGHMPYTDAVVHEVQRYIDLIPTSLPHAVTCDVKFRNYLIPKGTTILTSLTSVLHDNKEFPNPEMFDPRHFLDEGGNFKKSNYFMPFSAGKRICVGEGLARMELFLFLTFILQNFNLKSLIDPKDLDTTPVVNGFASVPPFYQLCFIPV

CYP inhibition (% at 10 μM) 2D6 (CYP2D6): 2.49% | CYP inhibition (% at 10 μM) 2C19 (CYP2C19): 54.06% | EC50 [1]: 32 nM
SMILES: CCc1cnc(N2CCC(COc3ccc(C4=CCC(C(=O)N5CCC[C@@H]5CO)CC4)cc3)CC2)nc1 (single isomer, unassigned; (-)) [Example 291]
